Active and inactive are the calls of the source.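 How the source made its calls: active means channel current reduced at one or more tested doses, with a fitted dose-response curve; inactive means no curve fitted, or no current reduction at any dose.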
Molecular target: Voltage-dependent T-type calcium channel subunit alpha-1H (Homo sapiens) (UniProt O95180)
Assay: Cav3.2 T-type calcium channel inhibitors, dose response, mechanism study, automated patch clamp, HEK293 cells (AID 504426)
Settings: Cav3.2-HEK293, automated patch clamp peak current; for current change, negative = inhibition: at 30 µM (top of the series)

Voltage-dependent T-type calcium channel subunit alpha-1H (Homo sapiens), sequence (O95180 whole entry, looked up): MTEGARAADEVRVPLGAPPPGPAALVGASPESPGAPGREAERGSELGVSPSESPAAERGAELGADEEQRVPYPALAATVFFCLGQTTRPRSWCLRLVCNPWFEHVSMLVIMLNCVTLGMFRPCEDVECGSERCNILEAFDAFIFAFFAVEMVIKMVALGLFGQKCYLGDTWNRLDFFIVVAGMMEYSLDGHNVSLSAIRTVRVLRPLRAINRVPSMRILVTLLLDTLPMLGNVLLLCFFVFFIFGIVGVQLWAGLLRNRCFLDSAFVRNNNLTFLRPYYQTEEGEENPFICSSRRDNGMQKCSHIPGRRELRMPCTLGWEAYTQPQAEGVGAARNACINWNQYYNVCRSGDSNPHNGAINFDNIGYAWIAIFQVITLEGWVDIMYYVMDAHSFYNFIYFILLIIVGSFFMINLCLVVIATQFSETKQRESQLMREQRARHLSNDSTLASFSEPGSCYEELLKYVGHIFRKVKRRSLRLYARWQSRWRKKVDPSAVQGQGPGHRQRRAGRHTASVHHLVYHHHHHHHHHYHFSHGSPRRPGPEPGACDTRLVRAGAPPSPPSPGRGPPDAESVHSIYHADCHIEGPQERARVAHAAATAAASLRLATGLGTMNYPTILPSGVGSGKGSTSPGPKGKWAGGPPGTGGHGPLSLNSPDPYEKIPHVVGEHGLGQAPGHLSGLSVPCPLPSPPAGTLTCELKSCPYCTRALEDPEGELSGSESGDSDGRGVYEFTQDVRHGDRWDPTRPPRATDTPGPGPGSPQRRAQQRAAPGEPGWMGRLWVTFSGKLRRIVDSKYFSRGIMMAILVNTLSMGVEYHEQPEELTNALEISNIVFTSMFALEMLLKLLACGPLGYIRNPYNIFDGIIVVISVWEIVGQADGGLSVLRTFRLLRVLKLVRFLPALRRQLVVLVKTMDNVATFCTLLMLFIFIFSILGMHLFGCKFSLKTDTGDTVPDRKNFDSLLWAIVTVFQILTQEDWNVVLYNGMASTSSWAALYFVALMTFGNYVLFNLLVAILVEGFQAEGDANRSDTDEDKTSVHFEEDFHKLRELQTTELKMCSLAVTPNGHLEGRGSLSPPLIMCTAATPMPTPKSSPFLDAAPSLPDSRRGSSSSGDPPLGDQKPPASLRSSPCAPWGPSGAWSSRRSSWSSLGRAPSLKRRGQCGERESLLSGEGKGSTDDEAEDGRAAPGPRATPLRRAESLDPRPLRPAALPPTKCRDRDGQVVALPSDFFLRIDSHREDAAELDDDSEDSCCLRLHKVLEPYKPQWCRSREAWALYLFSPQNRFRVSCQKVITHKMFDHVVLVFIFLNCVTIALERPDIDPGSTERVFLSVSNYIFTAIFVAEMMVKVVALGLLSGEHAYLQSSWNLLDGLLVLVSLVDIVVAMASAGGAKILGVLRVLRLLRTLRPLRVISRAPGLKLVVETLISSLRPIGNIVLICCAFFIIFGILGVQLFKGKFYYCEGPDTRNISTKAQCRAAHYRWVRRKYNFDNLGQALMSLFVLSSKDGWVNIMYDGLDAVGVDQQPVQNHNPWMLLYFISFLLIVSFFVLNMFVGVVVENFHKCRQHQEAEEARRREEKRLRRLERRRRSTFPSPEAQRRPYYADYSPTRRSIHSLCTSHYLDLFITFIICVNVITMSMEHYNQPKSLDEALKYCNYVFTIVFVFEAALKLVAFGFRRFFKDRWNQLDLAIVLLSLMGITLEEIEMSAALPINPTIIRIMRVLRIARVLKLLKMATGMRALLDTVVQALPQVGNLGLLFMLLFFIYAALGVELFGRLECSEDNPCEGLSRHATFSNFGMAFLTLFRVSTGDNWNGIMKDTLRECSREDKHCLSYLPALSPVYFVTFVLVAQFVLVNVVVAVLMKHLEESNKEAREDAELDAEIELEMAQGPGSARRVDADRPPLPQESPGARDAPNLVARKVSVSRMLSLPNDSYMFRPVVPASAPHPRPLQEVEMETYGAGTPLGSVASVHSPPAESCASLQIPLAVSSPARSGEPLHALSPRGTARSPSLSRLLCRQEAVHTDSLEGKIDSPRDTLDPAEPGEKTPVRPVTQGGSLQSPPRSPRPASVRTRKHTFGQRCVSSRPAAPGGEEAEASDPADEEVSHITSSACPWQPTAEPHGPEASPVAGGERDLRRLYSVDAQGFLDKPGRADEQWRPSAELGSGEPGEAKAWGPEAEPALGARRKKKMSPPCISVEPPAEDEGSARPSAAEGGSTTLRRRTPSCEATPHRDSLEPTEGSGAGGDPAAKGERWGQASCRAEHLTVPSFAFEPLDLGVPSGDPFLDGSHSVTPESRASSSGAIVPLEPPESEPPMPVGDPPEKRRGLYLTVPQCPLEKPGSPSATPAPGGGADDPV

CC(C)(C)Cc1nnc(NC(=O)COc2ccc(Cl)cc2Cl)o1
current change, negative = inhibition: inactive

O=C(COc1ccc(F)cc1Cl)Nc1nnc(-c2ccc(F)c(F)c2)o1
IC50: 13.5 µM

Cc1ccc(-c2nnc(NC(=O)COc3ccc(F)cc3Cl)o2)cc1C
current change, negative = inhibition: inactive

CC(C)(C)CCN1C[C@@H]2C(CNC(=O)c3cc(Cl)cc(Cl)c3)[C@@H]2C1 (some centres undefined)
IC50: 0.31 µM

Reference: PubChem BioAssay AID504426 (Johns Hopkins Ion Channel Center, 2011)
